This is an account of results in patent US12565515B2, “1,2,4-oxadiazole compounds as inhibitors of CD47 signalling pathways” (AURIGENE ONCOLOGY LIMITED, priority 2018, dated 2026).

For one test, the system named is luciferase expressing Raji cells. Briefly: Luciferase based phagocytosis assay. Format: cell-based. The conditions noted are these: human monocyte-derived macrophages, luminescence, read-out: % normalized phagocytosis (at 10 μM). As to the method:
(§1) DPBS (Gibco), RPMI 1640 WITH HEPES AND L-GLN-500 ML (Lonza), Recombinant Human M-CSF (R& D systems), CD47 Monoclonal Antibody (B6H12), Functional Grade antibody (Ebioscience), Mouse IgG1 kappa Isotype Control, Functional Grade (Ebioscience), Vacutainer (multiple sample luer adapter) (BD), Vacutainer (sodium heparin (NH) 158USP units, Blood collection tubes (BD), Histopaque (density—1.077 gm/ml) (SIGMA 1077), Trypan Blue solution (SIGMA-T8154), Hemacytometer (Bright line-SIGMA Z359629), Scalp vein infusion set (JMS), Cell Dissociation buffer (Gibco), 48-well sterile flat bottom plates (Corning), Luciferase expressing Raji cells (Generated in house by trasfection of luciferase gene in Raji cells) Luminometer, Hygromycin B (Invitrogen), Bright Glo luciferase assay system (Promega), 96 well plate, polystyrene, high band, white flat bottom wells (Sigma CLS3912), APC anti-mouse/human CD11b Antibody (Biolegend), H929 cells, CFSE (Ebioscience), Fetal Bovine Serum (Gibco Cat #: 10437028), Round-Bottom FACs Tubes (BD), Flowcytometer BD FACS Verse, 96 well plates, ultra-low attachment (Corning).
In vitro phagocytosis assay was performed to evaluate the ability of test item to enhance the phagocytic activity of macrophages. Monocytes were isolated from blood of healthy donor and cultured for 6-8 days using 10% RPMI (Roswell Park Memorial Institute) media and recombinant human M-CSF to differentiate into macrophages. Media was changed every alternate day. After differentiation, adherent macrophages were collected by gentle scraping and cultured in 10% RPMI overnight at a density of 0.1 million per well in 48 well tissue culture plate. Simultaneously, luciferase expressing Raji cells were cultured in 10% RPMI media with 100 μg/mL of hygromycin B in tissue culture flask. On the day of phagocytosis, macrophages were serum starved for 2 hours. 0.4 million luciferase expressing Raji cells per well were incubated with anti human CD47 purified B6H12 or Mouse IgG1 K Isotype Control antibody or various concentrations of test item in serum free media for 30 min at 37° C. and added into respective well of the 48 well plate seeded with macrophages. After 2 hours, cells were washed twice with PBS and 100 μL of serum free RPMI was added to each well. Additionally, 50 μL Bright Glow reagent was added to each well followed by mixing of cells and incubated for 5 min in dark. Luminescence reading was taken using plate reader after transferring the content of each well to white plate. Intensity of luminescence indicated the extent of phagocytosis. Each experimental condition was carried out in duplicate.
For the compound `NCCCC[C@H](N)c1noc([C@H](CCC(N)=O)NC(=O)N2CCC[C@H]2C(=O)O)n1` [Compound 1, (((S)-4-amino-1-(3-((S)-1,5-diaminopentyl)-1,2,4-oxadiazol-5-yl)-4-oxobutyl)carbamoyl)-L-proline], the activation at 10 µM came to 39%. `N=C(N)NCCC[C@H](NC(=O)N1CCCC1C(=O)O)c1nc([C@@H](N)CCC(=O)O)no1` (stereo partly drawn) [Compound 3]: the activation at 10 µM is 42%. Take `N=C(N)NCCC[C@H](N)c1noc([C@H](CCC(=O)O)NC(=O)N[C@@H](Cc2ccccc2)C(=O)O)n1` [Compound 7, (S)-4-(3-((S)-1-amino-4-guanidinobutyl)-1,2,4-oxadiazol-5-yl)-4-(3-((S)-1-carboxy-2-phenylethyl)ureido)butanoic acid]: the activation at 10 µM was found to be 58%. Regarding `N=C(N)NCCC[C@H](NC(=O)N[C@@H](CCC(=O)O)c1nc([C@@H]2CCCN2)no1)C(=O)O` [Compound 8], the activation at 10 µM was determined as 20%. On the same count and under the same terms, the value for `N=C(N)NCCC[C@H](NC(=O)N[C@@H](CCC(N)=O)c1nc([C@@H](N)CC(N)=O)no1)C(=O)O` [Compound 9] was 38%. On to `N=C(N)NCCC[C@H](NC(=O)N[C@@H](CCC(N)=O)C(=O)O)c1nc([C@@H](N)CCC(N)=O)no1` [Compound 12], for which the activation at 10 µM is 44%.

In the case of `NCCCC[C@H](N)c1noc([C@H](CCC(=O)O)NC(=O)N[C@@H](Cc2cnc[nH]2)C(=O)O)n1` [Compound 13], the activation at 10 µM was 49%.

As to `NCc1noc([C@H](Cc2cnc[nH]2)NC(=O)N[C@@H](Cc2ccccc2)C(=O)O)n1` [Compound 14], the activation at 10 µM was 47%.

The next test deals with H929 cells. Briefly: FACS based phagocytosis assay. It is filed as cell-based. The settings on record: NCI-H929, human macrophages, CFSE stained H929 cells, flow cytometry, normalized to positive control B6H12. As to the method: as §1
Monocytes were isolated from blood of healthy donor and cultured for 6-8 days using 10% RPMI (Roswell Park Memorial Institute) media and recombinant human M-CSF to differentiate into macrophages. Media was changed every alternate day. Simultaneously, H929 cells were cultured in 10% RPMI media with 50 μg/mL of betamercaptoethanol in tissue culture flask. On the day of phagocytosis adherent macrophages were serum starved for 2 hours in RPMI media. Simultaneously H929 cells were stained with 0.3 μM CFSE stain. After washing, 0.2 million CFSE stained H929 cells were incubated with anti-human CD47 or Mouse IgG1 K Isotype Control antibody or various conc of test item in serum free media for 30 min at 37° C. After 2 hours of serum starvation macrophages were dissociated with cell dissociation buffer and collected by gentle scraping and added at conc of 0.05 million per well into respective wells of the ultra-low attachment 96 well plate seeded with H929 cells. Phagocytosis was allowed for 2 hours. After 2 hours, cells were washed with PBS and stained with 1 μL of anti-human CD11b-APC antibody prepared in 100 μL of PBS for 30 min in 4° C. in dark. Cells were further washed and fixed in 100 μL of fixation buffer until acquired by Flow cytometry. The extent of phagocytosis of H929 cells by human macrophages was measured by acquiring the samples by Flow cytometry. Samples acquired by Flow cytometry were analysed by using FlowJo software. Each experimental condition was carried out in duplicate. Cells positive for FITC (CFSE) and CD11b-APC were considered as phagocytosed macrophages. Raw data of % phagocytosis by macrophages were obtained in the form of excel sheet from FlowJo. % phagocytosis from isotype control (background phagocytosis) was subtracted from % phagocytosis of macrophages treated with compound as well as other controls to get corrected phagocytosis values. Corrected phagocytosis values of compound treated samples were normalized with phagocytosis of positive control (B6H12) using the formula: % normalized phagocytosis=[(corrected % phagocytosis of compound)/(corrected phagocytosis of B6H12)*100]
As to `NCCCC[C@H](N)c1noc([C@H](CCC(N)=O)NC(=O)N2CCC[C@H]2C(=O)O)n1` [Compound 1, (((S)-4-amino-1-(3-((S)-1,5-diaminopentyl)-1,2,4-oxadiazol-5-yl)-4-oxobutyl)carbamoyl)-L-proline], the activation at 10 µM was 45%. `N=C(N)NCCC[C@H](N)c1noc([C@H](CCC(=O)O)NC(=O)N2CCCC2C(=O)O)n1` (stereo partly drawn) [Compound 2]: the activation at 10 µM stood at 37%.

`N=C(N)NCCC[C@H](NC(=O)N1CCCC1C(=O)O)c1nc([C@@H](N)CCC(=O)O)no1` (stereo partly drawn) [Compound 3] came in with an activation at 10 µM of 73%. The compound `N=C(N)NCCC[C@H](NC(=O)N1CCCC1C(=O)O)c1nc([C@@H](N)CCC(N)=O)no1` (stereo partly drawn) [Compound 5] showed an activation at 10 µM of 56%.

Compound `N=C(N)NCCC[C@H](N)c1noc([C@H](CCC(=O)O)NC(=O)N[C@@H](Cc2ccccc2)C(=O)O)n1` [Compound 7, (S)-4-(3-((S)-1-amino-4-guanidinobutyl)-1,2,4-oxadiazol-5-yl)-4-(3-((S)-1-carboxy-2-phenylethyl)ureido)butanoic acid] returned an activation at 10 µM of 38%. In turn, `N=C(N)NCCC[C@H](NC(=O)N[C@@H](CCC(=O)O)c1nc([C@@H]2CCCN2)no1)C(=O)O` [Compound 8] showed an activation at 10 µM of 40%. On to `N=C(N)NCCC[C@H](NC(=O)N[C@@H](Cc1ccccc1)C(=O)O)c1nc([C@@H](N)CCC(N)=O)no1` [Compound 10], for which the activation at 10 µM is 28%.

Take `N=C(N)NCCC[C@H](NC(=O)N[C@@H](CCC(N)=O)C(=O)O)c1nc([C@@H](N)CCC(N)=O)no1` [Compound 12]: the activation at 10 µM was 20%. `NCCCC[C@H](N)c1noc([C@H](CCC(=O)O)NC(=O)N[C@@H](Cc2cnc[nH]2)C(=O)O)n1` [Compound 13]: the activation at 10 µM is 29%.

Take `NCc1noc([C@H](Cc2cnc[nH]2)NC(=O)N[C@@H](Cc2ccccc2)C(=O)O)n1` [Compound 14]: the activation at 10 µM was 26%.

Turning to `NCCCC[C@H](N)c1noc([C@H](CCC(=O)O)NC(=O)NCC(=O)O)n1` [Compound 15], the activation at 10 µM came out at 62%. The same measure, in the same setting: the value for `N[C@@H](Cc1ccccc1)c1noc(CNC(=O)N2CCCC2C(=O)O)n1` (stereo partly drawn) [Compound 16] was 27%; that for `N[C@@H](CCC(=O)O)c1noc(CNC(=O)N2CCCC2C(=O)O)n1` (stereo partly drawn) [Compound 17] was 33%; that for `N[C@@H](Cc1cnc[nH]1)c1noc([C@H](Cc2ccccc2)NC(=O)N2CCCC2C(=O)O)n1` (stereo partly drawn) [Compound 19] was 52%. On to `NC(=O)CC[C@H](N)c1noc([C@H](CCC(=O)O)NC(=O)N2CCCC2C(=O)O)n1` (stereo partly drawn) [Compound 21], for which the activation at 10 µM stood at 13%. The same measure, in the same setting: to `N[C@@H](CCC(=O)O)c1noc(CNC(=O)N[C@@H](Cc2cnc[nH]2)C(=O)O)n1` [Compound 22] belongs 33%; to `N=C(N)NCCC[C@H](NC(=O)N1CCCC1C(=O)O)c1nc([C@@H](N)CC(=O)O)no1` (stereo partly drawn) [Compound 23], 60%; to `CCC(C)[C@H](N)c1noc([C@H](CCCNC(=N)N)NC(=O)N2CCCC2C(=O)O)n1` (stereo partly drawn) [Compound 29], 26%. As for `N=C(N)NCCC[C@H](NC(=O)N1CCCC1C(=O)O)c1nc([C@@H](N)Cc2c[nH]c3ccccc23)no1` (stereo partly drawn) [Compound 30], the activation at 10 µM is 23%. `N=C(N)NCCC[C@H](NC(=O)N1CCCC1C(=O)O)c1nc(CN)no1` (stereo partly drawn) [Compound 31] registered an activation at 10 µM of 58%.

As for `N[C@@H](CCC(=O)O)c1noc([C@H](CCC(=O)O)NC(=O)N2CCCC2C(=O)O)n1` (stereo partly drawn) [Compound 32], the activation at 10 µM came out at 46%.

On to `N[C@@H](CCC(=O)O)c1noc([C@H](Cc2ccccc2)NC(=O)N2CCC[C@H]2C(=O)O)n1` [Compound 33], for which the activation at 10 µM came to 31%. Still for that read-out and setting: the value for `N[C@@H](CCC(=O)O)c1noc([C@H](CO)NC(=O)N2CCCC2C(=O)O)n1` (stereo partly drawn) [Compound 35] was 35%; that for `CCC(C)[C@H](NC(=O)N[C@@H](CCCNC(=N)N)c1nc([C@@H](N)CCC(=O)O)no1)C(=O)O` (stereo partly drawn) [Compound 37] was 17%; that for `COC(=O)CC[C@H](N)c1noc(C(CCCNC(=N)N)NC(=O)N2CCCC2C(=O)OC)n1` (stereo partly drawn) [Compound 39] was 23%. As to `COC(=O)C1CCCN1C(=O)NC(CCCNC(=N)N)c1nc([C@@H](N)CCC(=O)O)no1` (stereo partly drawn) [Compound 40], the activation at 10 µM was found to be 27%. Compound `NCCCC[C@H](NC(=O)NCc1nc([C@@H](N)CCC(N)=O)no1)C(=O)O` [Compound 41] gave an activation at 10 µM of 31%. In the case of `NCCCC[C@H](NC(=O)N[C@@H](CCC(N)=O)c1nc([C@@H](N)CC(N)=O)no1)C(=O)O` [Compound 43], the activation at 10 µM is 43%.

`CC(C)C[C@H](NC(=O)N[C@@H](CCCNC(=N)N)c1nc([C@@H](N)CCC(=O)O)no1)C(=O)O` [Compound 44] had an activation at 10 µM of 20%. `N=C(N)NCCC[C@H](NC(=O)N[C@@H](Cc1c[nH]c2ccccc12)C(=O)O)c1nc([C@@H](N)CCC(=O)O)no1` [Compound 46]: the activation at 10 µM came out at 30%.

The compound `N=C(N)NCCC[C@H](NC(=O)N[C@@H](CC(=O)O)C(=O)O)c1nc([C@@H](N)CCC(=O)O)no1` [Compound 47] gave an activation at 10 µM of 18%. On the same count and under the same terms, the value for `N=C(N)NCCC[C@H](NC(=O)NCC(=O)O)c1nc([C@@H](N)CCC(=O)O)no1` [Compound 48] was 29%.

Consider `NC(=O)CC[C@H](N)c1noc(CNC(=O)N[C@@H](CCC(=O)O)C(=O)O)n1` [Compound 50], for which the activation at 10 µM stood at 26%. Consider `N=C(N)NCCC[C@H](NC(=O)N[C@@H](CCC(=O)O)C(=O)O)c1nc([C@@H](N)CCC(=O)O)no1` [Compound 51], for which the activation at 10 µM is 24%.
